Measurements published in patent publication US10954216B2, “BMP-signal-inhibiting compound” (RIKEN, priority 2016, dated 2021).
pIC50: −log10 of the molar value. Like-named read-outs stand apart in the source and are kept apart here.

How the values were obtained:
human ALK3 = human ALK3 (Homo sapiens (Human), UniProt P36894); test: ALK3 enzyme inhibitory effect (33P-ATP kinase assay, Reaction Biology); type: biochemical; conditions: for inhibition at 0.3 µM: read-out: Inhibition rate at 300 nM; for inhibition at 0.37 µM: ALK3, test compound 370 nM (asterisk footnote), read-out: inhibition rate at 370 nM
Chain of human ALK3 (P36894 24-532): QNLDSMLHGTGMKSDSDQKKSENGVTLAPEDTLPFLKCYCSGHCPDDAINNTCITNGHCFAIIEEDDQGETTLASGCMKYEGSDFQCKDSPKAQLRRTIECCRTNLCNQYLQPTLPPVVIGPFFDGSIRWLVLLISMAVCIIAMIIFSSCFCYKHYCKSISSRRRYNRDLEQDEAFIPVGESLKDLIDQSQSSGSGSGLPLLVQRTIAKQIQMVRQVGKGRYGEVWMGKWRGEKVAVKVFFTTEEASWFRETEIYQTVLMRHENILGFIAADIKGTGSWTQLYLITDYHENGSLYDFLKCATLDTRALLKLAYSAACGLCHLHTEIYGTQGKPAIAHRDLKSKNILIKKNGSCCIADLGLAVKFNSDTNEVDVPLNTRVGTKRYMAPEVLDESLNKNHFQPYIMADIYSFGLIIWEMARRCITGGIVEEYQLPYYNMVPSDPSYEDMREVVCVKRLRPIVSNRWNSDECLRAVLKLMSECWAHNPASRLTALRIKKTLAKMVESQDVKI
Excerpt: (§1) ALK Enzyme Inhibitory Effect
(§2) Evaluation conditions were described in the following web pages. http://www.reactionbiology.corrilwebapps/site/Kinase_Assay_Protocol.aspx http://www.reactionbiology.corrilwebapps/site/KinaseDetail.aspx?page=Kinases&id=1

[1] = tested on: BMP signal in MDA-231-D-BREFluc/Rluc cells; test: BMP signal inhibitory effect (AlphaScreen SureFire SMAD1 p-Ser463/465, BMP-6 stimulation); type: cell-based
Outline: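 Read-out was phospho-SMAD1 (Ser463/465) by AlphaScreen SureFire after 30 min BMP-6 stimulation at 37° C. Before stimulation, MDA-231-D-BREFluc/Rluc cells were incubated with test compound at 37° C for 2 h.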

human ALK6 = human ALK6 (Homo sapiens (Human), UniProt O00238); test: ALK6 enzyme inhibitory effect (33P-ATP kinase assay, Reaction Biology); type: biochemical; conditions: for inhibition at 0.3 µM: read-out: Inhibition rate at 300 nM; for inhibition at 0.37 µM: ALK6, test compound 370 nM (asterisk footnote), read-out: inhibition rate at 370 nM
Chain of human ALK6 (O00238 14-502): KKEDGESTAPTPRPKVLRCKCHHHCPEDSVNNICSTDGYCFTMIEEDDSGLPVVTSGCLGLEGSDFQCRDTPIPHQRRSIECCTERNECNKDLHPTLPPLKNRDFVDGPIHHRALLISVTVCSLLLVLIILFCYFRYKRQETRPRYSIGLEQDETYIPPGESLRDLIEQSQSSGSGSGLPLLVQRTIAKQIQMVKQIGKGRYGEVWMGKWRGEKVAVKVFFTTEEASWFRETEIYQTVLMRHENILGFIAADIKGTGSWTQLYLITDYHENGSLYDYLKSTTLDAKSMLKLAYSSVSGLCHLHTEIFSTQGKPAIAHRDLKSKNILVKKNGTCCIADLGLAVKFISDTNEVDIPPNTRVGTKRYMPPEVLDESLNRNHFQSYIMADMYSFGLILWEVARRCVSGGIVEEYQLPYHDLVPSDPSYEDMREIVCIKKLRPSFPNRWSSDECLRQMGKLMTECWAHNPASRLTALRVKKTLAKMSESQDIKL
Excerpt: as §1, §2

human ALK2 = human ALK2 (Homo sapiens (Human), UniProt Q04771); test: ALK2 enzyme inhibitory effect (33P-ATP kinase assay, Reaction Biology); type: biochemical; conditions: ALK2, 10 μM ATP, 20 μM casein
Chain of human ALK2 (Q04771 21-509): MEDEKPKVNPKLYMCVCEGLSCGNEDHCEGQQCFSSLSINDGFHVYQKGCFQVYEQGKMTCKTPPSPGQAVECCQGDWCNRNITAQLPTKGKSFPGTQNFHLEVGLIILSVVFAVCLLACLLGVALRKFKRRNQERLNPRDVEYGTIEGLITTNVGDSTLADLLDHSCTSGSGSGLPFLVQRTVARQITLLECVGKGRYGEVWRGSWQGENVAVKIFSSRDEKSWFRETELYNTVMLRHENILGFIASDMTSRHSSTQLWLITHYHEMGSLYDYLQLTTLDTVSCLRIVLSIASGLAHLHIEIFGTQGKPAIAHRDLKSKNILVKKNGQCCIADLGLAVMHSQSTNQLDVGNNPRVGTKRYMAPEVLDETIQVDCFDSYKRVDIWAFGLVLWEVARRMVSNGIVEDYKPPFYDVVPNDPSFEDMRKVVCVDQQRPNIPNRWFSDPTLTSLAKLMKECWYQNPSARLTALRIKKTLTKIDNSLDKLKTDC
Excerpt: as §1, §2

[2] = BMP-6 stimulated MDA-231-D-BREFluc/Rluc cells, phospho-SMAD1 AlphaScreen, read-out: IC50

Row | SMILES | pIC50 [1, 2] | inhibition at 0.3 µM (human ALK6; ALK6, test compound 300 nM) [%] | pIC50 (human ALK2) | further results
1 | CCn1cc(-c2ccnc(Nc3ccc(N4CCNCC4)c(F)c3)n2)c(-c2cccnc2)n1 [Example 152, 4-(1-Ethyl-3-(pyridin-3-yl)-1H-pyrazol-4-yl)-N-(3-fluoro-4-(piperazin-1-yl)phenyl)pyrimidin-2-amine] | 8.14 | 82 | 7.82 | inhibition at 0.3 µM (human ALK3; ALK3, test compound 300 nM): 53%
2 | FC(F)Cn1cc(-c2ccnc(Nc3ccc(N4CCNCC4)cc3)n2)c(-c2cccnc2)n1 [Example 149, 4-(1-(2,2-Difluoroethyl)-3-(pyridin-3-yl)-1H-pyrazol-4-yl)-N-(4-(piperazin-1-yl)phenyl)pyrimidin-2-amine] | 8.04 | 86.5 | 7.20 | inhibition at 0.3 µM (human ALK3; ALK3, test compound 300 nM): 63.5%
3 | CCn1cc(-c2ccnc(Nc3ccc(N4CCCCC4)cc3)n2)c(-c2cccnc2)n1 [Example 49, 4-(1-ethyl-3-(pyridin-3-yl)-1H-pyrazol-4-yl)-N-(4-(piperidin-1-yl)phenyl)pyrimidin-2-amine] | 7.55 | 91.6 | 7.17 | inhibition at 0.3 µM (human ALK3; ALK3, test compound 300 nM): 52.2%
4 | CCn1cc(-c2ccnc(Nc3ccc(N4CCN(CC5CC5)CC4)cc3)n2)c(-c2cccnc2)n1 [Example 33, N-(4-(4-(Cyclopropylmethyl)piperazin-1-yl)phenyl)-4-(1-ethyl-3-(pyridin-3-yl)-1H-pyrazol-4-yl)pyrimidin-2-amine] | 8.11 |  | 8.21 | 
5 | COCCN1CCN(c2ccc(Nc3nccc(-c4cn(CCOC)nc4-c4cccnc4)n3)cc2)CC1 [Example 37, 4-(1-(2-Methoxyethyl)-3-(pyridin-3-yl)-1H-pyrazol-4-yl)-N-(4-(4-(2-methoxyethyl)-piperazin-1-yl)phenyl)pyrimidin-2-amine] | 7.50 |  | 7.98 | 
6 | CN1CCN(c2ccc(Nc3nccc(-c4c[nH]nc4-c4cccnc4)n3)cc2)CC1 [Example 127, N-(4-(4-Methylpiperazin-1-yl)phenyl)-4-(3-(pyridin-3-yl)-1H-pyrazol-4-yl)pyrimidin-2-amine] | 7.65 |  |  | inhibition at 0.37 µM (human ALK3): 55.2%; inhibition at 0.37 µM (human ALK6): 82.8%
7 | CCn1cc(-c2ccnc(Nc3ccc(N4CCNCC4)cc3)n2)c(-c2cccnc2)n1 [Example 151, 4-(1-Ethyl-3-(pyridin-3-yl)-1H-pyrazol-4-yl)-N-(4-(piperazin-1-yl)phenyl)pyrimidin-2-amine] | 8.44 |  |  | inhibition at 0.37 µM (human ALK3): 56.1%; inhibition at 0.37 µM (human ALK6): 93%
8 | CCn1cc(-c2ccnc(Nc3ccc(N4CCNCC4)cc3)n2)c(-c2cncc(F)c2)n1 [Example 148, 4-(1-Ethyl-3-(5-fluoropyridin-3-yl)-1H-pyrazol-4-yl)-N-(4-(piperazin-1-yl)phenyl)pyrimidin-2-amine] | 7.83 | 79.4 | 7.29 | 
9 | CCn1cc(-c2ccnc(Nc3ccc(N4CCN(C)CC4)cc3)n2)c(-c2cccnc2)n1 [Example 46, 4-(1-Ethyl-3-(pyridin-3-yl)-1H-pyrazol-4-yl)-N-(4-(4-methylpiperazin-1-yl)phenyl)pyrimidin-2-amine] | 7.73 |  | 7.59 | 
10 | CCn1cc(-c2ccnc(Nc3ccc(C4CC5CCC(C4)N5)cc3)n2)c(-c2cccnc2)n1 (centres unmarked) [Example 163, N-(4-(8-Azabicyclo [3.2.1]octan-3-yl)phenyl)-4-(1-ethyl-3-(pyridin-3-yl)-1H-pyrazol-4-yl)pyrimidin-2-amine] |  |  |  | inhibition at 0.3 µM (human ALK3): 47.6%; pIC50 [1]: 8.31; inhibition at 0.3 µM (human ALK6): 96.2%
11 | Fc1ccc(Cn2cc(-c3ccnc(Nc4ccc(N5CCNCC5)cc4)n3)c(-c3cccnc3)n2)cc1 [Example 139, 4-(1-(4-Fluorobenzyl)-3-(pyridin-3-yl)-1H-pyrazol-4-yl)-N-(4-(piperazin-1-yl)phenyl)pyrimidin-2-amine] | 7.79 | 90.6 |  | inhibition at 0.3 µM (human ALK3; ALK3, test compound 300 nM): 54.3%
12 | c1cncc(-c2n[nH]cc2-c2ccnc(Nc3ccc(OCCN4CCOCC4)cc3)n2)c1 [Example 25, N-(4-(2-morpholinoethoxy)phenyl)-4-(3-(pyridin-3-yl)-1H-pyrazol-4-yl)pyrimidin-2-amine] | 7.31 |  |  | inhibition at 0.37 µM (human ALK6): 47.7%
13 | CCn1cc(-c2ccnc(Nc3ccc(N4CC5CCC(C4)N5)nc3)n2)c(-c2cccnc2)n1 [Example 144, N-(6-(3,8-Diazabicyclo[3.2.1]octan-3-yl)pyridin-3-yl)-4-(1-ethyl-3-(pyridin-3-yl)-1H-pyrazol-4-yl)pyrimidin-2-amine] |  |  |  | inhibition at 0.3 µM (human ALK3): 46%; pIC50 [1]: 7.78; inhibition at 0.3 µM (human ALK6): 86%
14 | CCn1cc(-c2ccc(Nc3nccc(-c4cn(CC)nc4-c4cccnc4)n3)cc2)cn1 [Example 27, N-(4-(1-ethyl-1H-pyrazol-4-yl)phenyl)-4-(1-ethyl-3-(pyridin-3-yl)-1H-pyrazol-4-yl)pyrimidin-2-amine] | 7.23 |  | 7.75 | 
15 | CCn1cc(-c2ccnc(Nc3ccc(-c4cnn(CC(F)F)c4)cc3)n2)c(-c2cccnc2)n1 [Example 29, N-(4-(1-(2,2-Difluoroethyl)-1H-pyrazol-4-yl)phenyl)-4-(1-ethyl-3-(pyridin-3-yl)-1H-pyrazol-4-yl)pyrimidin-2-amine] | 7.53 | 91.3 |  | inhibition at 0.3 µM (human ALK3; ALK3, test compound 300 nM): 66.1%
16 | CCn1cc(-c2ccnc(Nc3ccc(N4CCN(C(C)C)CC4)cc3)n2)c(-c2cccnc2)n1 [Example 16, 4-(1-ethyl-3-(pyridin-3-yl)-1H-pyrazol-4-yl)-N-(4-(4-isopropylpiperazin-1-yl)phenyl)pyrimidin-2-amine] | 7.89 |  | 8.18 | 
17 | O=C(c1ccc(Nc2nccc(-c3cn(Cc4ccccc4)nc3-c3cccnc3)n2)cc1)N1CCNCC1 [Example 138, (4-((4-(1-Benzyl-3-(pyridin-3-yl)-1H-pyrazol-4-yl)pyrimidin-2-yl)amino)phenyl) (piperazin-1-yl)methanone] | 7.65 | 83.8 |  | 
18 | CCn1cc(-c2ccnc(Nc3ccc(C(N)=O)cc3)n2)c(-c2cccnc2)n1 [Example 23, 4-((4-(1-Ethyl-3-(pyridin-3-yl)-1H-pyrazol-4-yl)pyrimidin-2-yl)amino)benzamide] | 7.47 |  |  | inhibition at 0.3 µM (human ALK3; ALK3, test compound 300 nM): 52%
19 | CCn1cc(-c2ccnc(Nc3ccc(N4CC5CCC(C4)N5)cc3)n2)c(-c2cccnc2)n1 [Example 143, N-(4-(3,8-Diazabicyclo[3.2.1]octan-3-yl)phenyl)-4-(1-ethyl-3-(pyridin-3-yl)-1H-pyrazol-4-yl)pyrimidin-2-amine] |  |  |  | inhibition at 0.3 µM (human ALK3): 57%; pIC50 [1]: 8.04; inhibition at 0.3 µM (human ALK6): 91%
20 | CCn1cc(-c2ccnc(Nc3ccc(S(=O)(=O)N(C)C4CCN(C(C)C)CC4)cc3)n2)c(-c2cccnc2)n1 [Example 124] | 7.80 | 87 | 7.21 | 
21 | CCn1cc(-c2ccnc(Nc3cccc(OC4CCNCC4)c3)n2)c(-c2cccnc2)n1 [Example 165, 4-(1-Ethyl-3-(pyridin-3-yl)-1H-pyrazol-4-yl)-N-(3-(piperidin-4-yloxy)phenyl) pyrimidin-2-amine] | 7.65 |  | 7.24 | 
22 | CCn1cc(-c2ccnc(Nc3cccc(CN4CCOCC4)c3)n2)c(-c2cccnc2)n1 [Example 41, 4-(1-ethyl-3-(pyridin-3-yl)-1H-pyrazol-4-yl)-N-(3-(morpholinomethyl)phenyl)pyrimidin-2-amine] | 7.92 | 78 | 7.17 | 
23 | N#Cc1cccc(Cn2cc(-c3ccnc(Nc4ccc(N5CCNCC5)cc4)n3)c(-c3cccnc3)n2)c1 [Example 156, 3-((4-(2-((4-(Piperazin-1-yl)phenyl)amino)pyrimidin-4-yl)-3-(pyridin-3-yl)-1H-pyrazol-1-yl)methyl)benzonitrile] | 7.61 |  | 8.21 | 
24 | CCn1cc(-c2ccnc(Nc3ccc(N4CCNCC4)c(C)c3)n2)c(-c2cccnc2)n1 [Example 154, 4-(1-Ethyl-3-(pyridin-3-yl)-1H-pyrazol-4-yl)-N-(3-methyl-4-(piperazin-1-yl)phenyl)pyrimidin-2-amine] | 8.15 |  |  | 
25 | COCC(O)CN1CCN(c2ccc(Nc3nccc(-c4cn(C5COC5)nc4-c4cccnc4)n3)cc2)CC1 (centres unmarked) [Example 110, 1-Methoxy-3-(4-(4-((4-(1-(oxetan-3-yl)-3-(pyridin-3-yl)-1H-pyrazol-4-yl)pyrimidin-2-yl)amino)phenyl)piperazin-1-yl)propan-2-ol] | 7.48 |  |  | 
26 | CCn1cc(-c2ccnc(Nc3ccc(N4CCC(N)(CC)CC4)cc3)n2)c(-c2cccnc2)n1 [Example 177, N-(4-(4-Amino-4-ethylpiperidin-1-yl)phenyl)-4-(1-ethyl-3-(pyridin-3-yl)-1H-pyrazol-4-yl)pyrimidin-2-amine] | 8.07 |  | 8.46 | 
27 | CCn1cc(-c2ccnc(Nc3ccc(N4CCN(CC(N)=O)CC4)cc3)n2)c(-c2cccnc2)n1 [Example 87, 2-(4-(4-((4-(1-Ethyl-3-(pyridin-3-yl)-1H-pyrazol-4-yl)pyrimidin-2-yl)amino)phenyl)piperazin-1-yl)acetamide] | 7.53 |  |  | 
28 | c1cncc(Cn2cc(-c3ccnc(Nc4ccc(N5CCNCC5)cc4)n3)c(-c3cccnc3)n2)c1 [Example 141, N-(4-(Piperazin-1-yl)phenyl)-4-(3-(pyr-3-yl)-1-(pyridin-3-ylmethyl)-1H-pyrazol-4-yl)pyrimidin-2-amine] | 7.26 |  |  | 
